Like-named read-outs stand apart in the source and are kept apart here.
What was measured:
[1] = tested on: glioblastoma (GL261 cells); assay: Histological colocalization of fluorescence signal and tumor (Manders' coefficients); type: in vivo, C57BL/6 mouse; conditions: 120 mg/kg intraperitoneally, 4 h post-injection
Method: We equally analyzed the histological colocalization of the fluorescence signal and cancer cells. […] Frozen sectioning was performed after fixation of the brain specimen in Tissue‐Tek O.C.T. using a cryostat. The fixed tissue was sliced axially at 30 μm thickness and mounted on a slide for immediate fluorescence micro imaging with the BZ‐X800. Multiple slices were performed across the tumor. Subsequently, we stained some slices with H&E according to common standard procedure, and imaged them with BZ‐X800 or Vectra Polaris. […] The mouse was euthanized and prepared for section imaging at 4 h post‐injection. The 5‐ALA emission was collected with an excitation filter (545 ± 25 nm), dichromatic mirror (565 nm), and a barrier filter (605 ± 70 nm). Quantification of the colocalization of tumor on H&E staining, 5‐ALA, and NIR were performed with the JACoP plugin for ImageJ using the Manders' coefficients.[28] Values of these coefficients range from 0 to 1 and express the fraction of intensity in a channel located in pixels where there is above threshold intensity in the other color channel.

[2] = cited from earlier work; for brightness (NIR-I) higher than ICG: 100 μM
Source text: Near‐infrared fluorescence imaging technology is widely used for FGS due to its non‐invasive, real‐time, and multi‐dimensional monitoring characteristics. The combination of the reducing photon scattering, light absorption, and tissue autofluorescence provides a clear view deep into the body, capable of extraordinarily high SBR that are only accomplishable when moving from the NIR‐I to NIR‐II region. Because some organic dyes are relatively easy to synthesize, modifiable, and have low biological toxicity, several studies recently explored clinically approved or commercially available NIR‐I cya ...

GRPR of GL261 cell line = biological target: T1, GRPR of GL261 cell line (Mus musculus, UniProt P21729); assay: Targeted cell imaging (uptake and RM26 blocking); type: cell-based; conditions: 500 μM RM26 before 100 μM IRDye800-RM26, imaged after 1 h
T1 construct: host or cells: GL261 (stably expressing firefly luciferase)
Source text: Subsequently, we washed the cells with 1 × PBS 3 times and scanned then using fluorescence microscopy (BZ‐X800; KEYENCE, Japan). The NIR emission was collected with an excitation filter (775 ± 50 nm), dichromatic mirror (810 nm), and a barrier filter (845 ± 55 nm).

T1 sequence (P21729 whole entry): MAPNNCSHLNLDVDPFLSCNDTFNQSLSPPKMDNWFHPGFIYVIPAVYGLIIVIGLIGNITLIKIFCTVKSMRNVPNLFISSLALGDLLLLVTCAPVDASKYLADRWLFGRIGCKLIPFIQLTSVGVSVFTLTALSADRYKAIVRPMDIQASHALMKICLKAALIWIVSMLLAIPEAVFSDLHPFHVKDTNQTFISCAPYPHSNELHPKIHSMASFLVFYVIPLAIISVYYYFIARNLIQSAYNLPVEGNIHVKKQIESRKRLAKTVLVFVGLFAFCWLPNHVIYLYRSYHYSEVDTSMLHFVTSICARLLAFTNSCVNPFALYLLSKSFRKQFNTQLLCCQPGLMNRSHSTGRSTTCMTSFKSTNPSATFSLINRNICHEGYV

Compound: NCC(=O)CCC(=O)O [5-ALA, 5‐aminolevulinic acid]
- fraction of glioblastoma on 5-ALA overlapping tumor on H&E (Manders' coefficient) [1]: 99.8%
- fraction of tumor on H&E overlapping tumor on 5-ALA (Manders' coefficient) [1]: 63.8%

Compound: CC1(C)C(/C=C/C=C/C=C/C=C2\N(CCCCS(=O)(=O)O)c3ccc4ccccc4c3C2(C)C)=[N+](CCCCS(=O)(=O)[O-])c2ccc3ccccc3c21 [ICG, indocyanine green]
- brightness relative to IRDye800CW ([2]; bovine blood, 0.01 mg/mL): 12.3 times
- concentration with maximum fluorescence intensity ([2]; in BSA): 10000 to 20000 ng/mL

Compound: CC1(C)C(/C=C/C2=C(Oc3ccc(S(=O)(=O)O)cc3)C(=C/C=C3/N(CCCCS(=O)(=O)O)c4ccc(S(=O)(=O)[O-])cc4C3(C)C)/CCC2)=[N+](CCCCCC(=O)O)c2ccc(S(=O)(=O)O)cc21 [IRDye800]
- brightness (NIR-I) higher than ICG ([2]; FBS): 1.8 fold
- quantum yield (QY) ([2]; NIR-I, serum): 12%
- brightness (NIR-I) higher than ICG ([2]; PBS): 3.3 fold

Compound: D‐Phe‐Gln‐Trp‐Ala‐Val‐Gly‐His‐Sta‐Leu‐NH2 [RM26]
- effect of RM26 blocking on IRDye800-RM26 uptake (GRPR of GL261 cell line): reduced

Source: article PMC10354759, “Preclinical assessment of IRDye800CW‐labeled gastrin‐releasing peptide receptor‐targeting peptide for near infrared‐II imaging of brain malignancies” (Bioengineering & Translational Medicine, 2023)
